These results are taken from patent US11938129B2, “Methods and compositions for the treatment of vascular disease” (THE GENERAL HOSPITAL CORPORATION, priority 2018, dated 2024).

Entries after “also recorded” stand apart in the source; their conditions may differ.

Test [1] has as its system neointimal formation in ligated carotid. Put plainly: murine carotid artery ligation model: neointimal formation and stenosis (histology). The class given is in vivo, mouse. Particulars: wild-type mice, left carotid ligation, 21 days; GSK343 in drinking water from 24 hrs before ligation for 3 weeks; GapmeR 15 nmol 24 hrs before and 7 days post-ligation. On the procedure: (§1) All mice used in this study were cared for under strict compliance with the Partners Institutional Animal Care and Use Committee (IACUC), regulated by the United States Public Health Service (USPHS). Carotid ligations were performed in 10 week old mice. Briefly, animals were anesthetized using intraperitoneal ketamine/xylazine (80 and 12 mg/kg, respectively) followed by a small incision in the neck to expose the carotid artery. Then the left carotid was ligated at the carotid bifurcation level using a 8-0 silk suture. At 21 days mice were sacrificed and carotids were collected for histological analysis. Approximately 98% of wild type mice developed stenotic lesions. Mice that developed thrombosis of the ligated carotid were excluded from the study (−1¬2%). Malatl knockout mice were kindly provided by Dr. David Spector (Cold Spring Harbor, N.Y.). Hdac9 flox/flox/Talgn-cre mice were generated as previously reported (10). […]
(§2) Left and right carotids were cryosectioned using OCT standard protocol and sectioning. […] Slides 1, 5, 10, and 15 were H&E stained for quantification of neointima. For quantification of the neointima, internal and external elastic lamina perimeters and medial thickness from 4 quadrants were measured and averaged using Image J software from the National Institutes of Health (NIH). […]

The subject of test [2] is a-SMA and SM22a. Put plainly: immunofluorescence of contractile proteins in ligated carotids. It is filed as in vivo, mouse. The procedure: All mice used in this study were cared for under strict compliance with the Partners Institutional Animal Care and Use Committee (IACUC), regulated by the United States Public Health Service (USPHS). Carotid ligations were performed in 10 week old mice. Briefly, animals were anesthetized using intraperitoneal ketamine/xylazine (80 and 12 mg/kg, respectively) followed by a small incision in the neck to expose the carotid artery. Then the left carotid was ligated at the carotid bifurcation level using a 8-0 silk suture. At 21 days mice were sacrificed and carotids were collected for histological analysis. Approximately 98% of wild type mice developed stenotic lesions. Mice that developed thrombosis of the ligated carotid were excluded from the study (−1¬2%). Malatl knockout mice were kindly provided by Dr. David Spector (Cold Spring Harbor, N.Y.). Hdac9 flox/flox/Talgn-cre mice were generated as previously reported (10). Ezh2 fl/fl/ (STOCK Ezh2tm2Sho/J) and Myh11-cre-GFP (B6.Cg-Tg(Myh11-cre,-EGFP)2Mik/J) were crossed to generate smooth muscle cell-Ezh2 deficient mice. All above mice and wild-type mice (C57BL/6J) were purchased from Jackson laboratory. For tissue analysis, animals were euthanized through inhalational isoflurane (Sigma, St, Louis, Mo.) prior to tissue collection. All carotid ligation (left carotid) procedures were performed at 10 weeks of age. All experiments were performed on male and female animals at a 1:1 ratio.
Left and right carotids were cryosectioned using OCT standard protocol and sectioning. The right carotid artery was unligated and served as an internal control. Neoinitima analysis was performed from hematoxylin and eosin (H & E) stained horizontal cross-sections embedded in Optimal Cutting Temperature compound (OCT). Briefly, the distal 0.2 mm of carotid from the ligation suture site were discarded followed by generation of 20 slides (10 pM). Slides 1, 5, 10, and 15 were H&E stained for quantification of neointima. For quantification of the neointima, internal and external elastic lamina perimeters and medial thickness from 4 quadrants were measured and averaged using Image J software from the National Institutes of Health (NIH). Slides 2-4, 6-9, and 11-14 were used for immunofluorescence staining.
Cohorts of 10-week-old wild-type mice were treated with oral administration in drinking water of GSK343 24 hrs before left carotid ligation and following treatment for 3 weeks. GSK343 inhibitor (25 mg) was dissolved in 1 mL of DMSO to obtain a stock solution of 46 mM. Then, 250 ml of drinking water was supplemented with 250 pl of GSK343 stock solution. Control group for was given with equal volumes of sterile water. Bottles containing GSK343 were replaced with fresh water supplied with drug every 3 days. […]

For test [3], the system named is FAK. Put plainly: immunofluorescence of p-FAK in ligated carotid. The class given is in vivo, mouse. Conditions: media and intima of carotid arteries. The procedure: as §1, §2
The test system of test [4] is VSMC phenotypic markers. Put plainly: expression of VSMC phenotypic markers in aortas of treated Fbn1C1039G/+ mice. It is filed as in vivo, mouse. Particulars: aortas of Fbn1C1039G/+ mice treated from two to six months. The procedure:
Total RNA was prepared from tissue or primary cells using RNeasy kit (Qiagen) following the manufacturer's protocol. The cDNA was prepared by reverse transcription, and expression of SMC contractile genes were analyzed by qRT-PCR on SYBR green system (Applied Biosystem, Foster city, CA). 50 pL of plasma from wild-type or Fbn1cl° 39G1+ mice were used to prepare total RNA as mentioned above. Expression results were analyzed by the ddCT method and GAPDH (encoding glyceraldehyde-3-phosphate dehydrogenase) was used as a housekeeping gene. Fold change were calculated by taking the average over all the control samples as the baseline. […] The supernatant was removed and the vesicular fraction was resuspended with 750 pL of TRizol reagent followed by RNA extraction using the RNeasy kit (Qiagen) according to the manufacturer's protocol. Cohorts of 8-week-old wild-type or Fbn1cw3gGi+ mice were treated with oral administration in drinking water of either Losartan or GSK343 for 20 weeks (FIG. 5). […] Then 200 mL of drinking water was supplemented with 250 pL of GSK343 stock solution. Control group for either drug treatment was given with equal volumes of sterile water. Bottles containing either losartan or GSKS343 were replaced with fresh water supplied with drugs every 3 days. For experiments described in FIG. 5A-5C, 16-week-old wild-type or Fbnicw3gGi+ mice were treated for 8 weeks and as described above. Additionally, a group of mice were given a combination of both losartan and GSK343 at the same concentrations as of other single drug treatments. Aortic dimensions were monitored monthly by echocardiograms as mentioned above.

The subject of test [5] is aortic wall of Fbn1C1039G/+ mice. Put plainly: histologic analysis of aortas of treated Fbn1C1039G/+ mice. The class given is in vivo, mouse. Conditions: aortas of Fbn1C1039G/+ mice treated from two to six months. The procedure: (§3) Latex was injected into the left ventricular apex under low pressure until it was visible in the femoral artery. Animals were then fixed in Formalin (10%) for 24 hours before transfer to 70% ethanol for dissection and storage. Aortas were then removed from the animals or dissected in situ for photography prior to paraffinization and sectioning (10 pM). Slides were produced for tissue staining or stained with standard stains including H&E staining, collagen deposition (Trichrome Stain (Masson) Kit, Sigma, USA), elastin (Verhoeff-Van Gieson, Thermo Scientific, MI, USA) or F-actin (ActinGreen™ 488 ReadyProbes, ThermoFisher Scientific, USA) for quantitative analysis. Elastin integrity score was rated by blinded observers and graded on an arbitrary scale of 5 (indicating high quality elastic fiber) to 1 (indicating severe elastin fragmentation). For nuclear staining aortas from human and mice were cryosectioned using OCT standard protocol as described previously (Fischer et al., 2008). Cohorts of 8-week-old wild-type or Fbn1cw3gGi+ mice were treated with oral administration in drinking water of either Losartan or GSK343 for 20 weeks (FIG. 5). […] Then 200 mL of drinking water was supplemented with 250 pL of GSK343 stock solution. Control group for either drug treatment was given with equal volumes of sterile water. Bottles containing either losartan or GSKS343 were replaced with fresh water supplied with drugs every 3 days. For experiments described in FIG. 5A-5C, 16-week-old wild-type or Fbnicw3gGi+ mice were treated for 8 weeks and as described above. Additionally, a group of mice were given a combination of both losartan and GSK343 at the same concentrations as of other single drug treatments. Aortic dimensions were monitored monthly by echocardiograms as mentioned above.

The test system of test [6] is TGF-β signaling. Put plainly: TGF-β activity by phosphorylation of Smad2 or Erk1 in aortas of treated mice. The class given is in vivo, mouse. Conditions: aortic tissue of treated Fbn1C1039G/+ mice. The procedure:
as §3, with “Control group for either drug treatment was given with equal volumes of sterile water. Bottles containing either losartan or GSKS343 were replaced with fresh water supplied with drugs every 3 days. For experiments described in FIG. 5A-5C, 16-week-old wild-type or Fbnicw3gGi+ mice were treated for 8 weeks and as described above. Additionally, a group of mice were given a combination of both losartan and GSK343 at the same concentrations as of other single drug treatments.” left out

Test [7] concerns H3K27 methylation in HCC1806 cells. Particulars: read-out: IC50 for inhibition of H3K27 methylation; cited from earlier work.

For orientation: IC50 means the concentration needed to halve the response being measured. For `CCCc1cc(C)[nH]c(=O)c1CNC(=O)c1cc(-c2ccnc(N3CCN(C)CC3)c2)cc2c1cnn2C(C)C` [GSK343], the “extent of the stenotic response / neointimal formation” value in test [1] is listed as “significant inhibition of neointimal formation; also recorded: dramatically improved the extent of the stenotic response”. In addition, the “expression of α-SMA in carotid VSMCs” value in test [2] (ligated carotid, in contrast to carotid VSMCs in wild type animals) is listed as “robust expression”. The “expression of contractile proteins such as a-SMA and SM22a” value in test [2] (ligated carotids of treated mice) is “improved the expression of contractile proteins”. Moreover, the “phosphorylation of FAK” value in test [3] was “dramatic reduction”. In addition, in test [4], the contractile elements result is listed as “better recovery of contractile elements” and the “synthetic markers (Col1a1, Col3a1, Gja1, Mmp2)” value is reported as “inability to repress synthetic markers”. Further, in test [5], the “aortic architecture and filamentous actin content” value is given as “improvement”; the elastin integrity entry is recorded as “not a significant improvement in elastin fiber integrity”. Besides, the “TGF-β activity as assessed by phosphorylation of Smad2 or Erk1 protein” value in test [6] was “did not suppress and not”. Further, in test [7], the IC50 is less than 200 nM.
